From the supplement of paper PMC10307832

Columns and labels:
Assay in all cases: relative viability (nuclei count vs DMSO), 5 days (fraction); higher = more cells survive
[1] = compound: CCn1c(-c2nonc2N)nc2c(C#CC(C)(C)O)ncc(OC[C@H]3CCCNC3)c21 + Cc1cc(Nc2cc(N3CCN(C)CC3)nc(Sc3ccc(NC(=O)C4CC4)cc3)n2)n[nH]1 [Tozasertib] (partner 0.1 µM)
Procedure, shortened: (§1)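 Lung cancer cell lines were pin-tool dosed in 1536-well plates on the day after seeding, with either a lone drug or a fixed anchor-drug dose plus five library-drug doses (not always all listed) in √10 steps. Nuclei were counted on 4× images after 5 days. Relative viability is the ratio of treated-well to vehicle-well nuclei counts, with each value a median of duplicate plates.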

BAM7 + Crizotinib = compound: CCOC1=CC=CC=C1N=NC2=C(NN(C2=O)C3=NC(=CS3)C4=CC=CC=C4)C [BAM7] + C[C@@H](Oc1cc(-c2cnn(C3CCNCC3)c2)cnc1N)c1c(Cl)ccc(F)c1Cl [Crizotinib] (partner 1 µM)
Procedure, shortened: as §1

[2] = compound: CCn1c(-c2nonc2N)nc2c(C#CC(C)(C)O)ncc(OC[C@H]3CCCNC3)c21 + O=C(CCCCCCC(=O)Nc1ccccc1)NO [Vorinostat] (partner 1 µM)
Procedure, shortened: as §1

BAM7 + Decitabine = compound: CCOC1=CC=CC=C1N=NC2=C(NN(C2=O)C3=NC(=CS3)C4=CC=CC=C4)C [BAM7] + Nc1ncn([C@H]2C[C@H](O)[C@@H](CO)O2)c(=O)n1 [Decitabine] (partner 2 µM)
Procedure, shortened: as §1

| Cell Line | relative viability ([1]; first compound 0.01 µM) | relative viability ([1]; first compound 0.03162 µM) | relative viability ([1]; first compound 0.1 µM) | relative viability ([1]; first compound 0.3162 µM) | relative viability ([1]; first compound 1 µM) | relative viability (BAM7 + Crizotinib; first compound 0.5 µM) | relative viability (BAM7 + Crizotinib; first compound 5 µM) | relative viability (BAM7 + Crizotinib; first compound 15.81 µM) | relative viability (BAM7 + Crizotinib; first compound 50 µM) | relative viability ([2]; first compound 0.01 µM) | relative viability ([2]; first compound 0.1 µM) | relative viability ([2]; first compound 0.3162 µM) | relative viability ([2]; first compound 1 µM) | relative viability (BAM7 + Decitabine; first compound 0.5 µM) | relative viability (BAM7 + Decitabine; first compound 5 µM) | relative viability (BAM7 + Decitabine; first compound 15.81 µM) | relative viability (BAM7 + Decitabine; first compound 50 µM) | relative viability ([2]; first compound 0.03162 µM) |
| --- | --- | --- | --- | --- | --- | --- | --- | --- | --- | --- | --- | --- | --- | --- | --- | --- | --- | --- |
| NCI-H596 | 1.07 | 0.886 | 0.862 | 0.951 | 0.792 | 0.97 | 1.03 | 0.913 | 0.978 | 0.569 | 0.553 | 0.58 | 0.633 | 0.879 | 0.984 | 0.908 | 1.09 |  |
| NCI-H322M | 0.465 | 0.419 | 0.423 | 0.42 | 0.448 | 0.859 | 0.798 | 0.811 | 0.641 | 0.75 | 0.754 | 0.702 | 0.869 | 0.761 | 0.722 | 0.742 | 0.692 | 0.724 |
| NCI-H647 | 0.26 | 0.326 | 0.255 | 0.312 | 0.396 | 0.758 | 1.25 | 1.14 | 1.08 | 0.616 | 0.603 | 0.358 | 0.587 | 0.404 | 0.372 | 0.436 | 0.438 | 0.491 |
| SK-MES-1 | 0.858 | 0.835 | 0.894 | 0.854 | 0.856 | 1.05 | 1.01 | 0.961 | 1.04 | 1.08 | 1.1 | 1.05 | 1.1 | 0.346 | 0.337 | 0.375 | 0.395 | 1.1 |
| NCI-H2170 | 0.769 | 0.755 | 0.778 | 0.705 | 0.733 | 1.12 | 1.07 | 0.873 | 0.989 | 0.841 | 0.836 | 0.699 | 0.85 | 0.411 | 0.436 | 0.405 | 0.432 | 0.764 |
| NCI-H2085 | 0.81 | 0.771 | 0.811 | 0.822 | 0.729 | 0.829 | 0.956 | 0.75 | 0.859 | 0.822 | 0.785 | 0.712 | 0.796 | 0.558 | 0.549 | 0.47 | 0.604 | 0.785 |
| SW 1573 | 0.175 | 0.179 | 0.178 | 0.201 | 0.14 | 0.974 | 0.962 | 0.778 | 0.8 | 0.374 | 0.451 | 0.367 | 0.499 | 0.502 | 0.551 | 0.636 | 0.594 | 0.82 |
| NCI-H727 | 0.605 | 0.662 | 0.643 | 0.693 | 0.575 | 0.843 | 0.799 | 0.714 | 0.675 | 1.28 | 1.19 | 1.09 | 1.26 | 0.894 | 0.954 | 0.89 | 0.808 | 1.12 |
| NCI-H441 | 0.699 | 0.53 | 0.538 | 0.57 | 0.56 | 0.776 | 0.656 | 0.706 | 0.717 | 0.786 | 0.937 | 0.614 | 0.663 | 0.291 | 0.251 | 0.235 | 0.209 | 0.85 |
| LOU-NH91 | 0.702 | 0.763 | 0.634 | 0.665 | 0.732 | 0.722 | 0.801 | 0.719 | 0.705 | 0.899 | 1 | 0.767 | 0.794 | 0.815 | 0.859 | 0.783 | 0.799 | 0.828 |
| NCI-H3122 | 0.369 | 0.405 | 0.396 | 0.369 | 0.337 | 0.282 | 0.378 | 0.33 | 0.312 | 1.07 | 1.05 | 1.06 | 0.994 | 0.506 | 0.514 | 0.447 | 0.444 | 1.01 |
| NCI-H460 | 0.533 | 0.542 | 0.447 | 0.461 | 0.532 | 1.16 | 1.13 | 0.743 | 0.96 | 0.722 | 0.757 | 0.64 | 0.767 | 0.475 | 0.455 | 0.473 | 0.449 | 0.857 |
| NCI-H650 | 0.724 | 0.746 | 0.73 | 0.723 | 0.694 | 0.649 | 0.764 | 0.656 | 0.69 | 0.435 | 0.393 | 0.423 | 0.396 | 0.297 | 0.323 | 0.315 | 0.448 | 0.384 |
| NCI-H661 | 0.362 | 0.343 | 0.354 | 0.364 | 0.382 | 1.27 | 1.08 | 0.971 | 0.931 | 0.787 | 0.788 | 0.742 | 0.735 | 0.597 | 0.579 | 0.611 | 0.579 | 0.788 |
| NCI-H1734 | 0.262 | 0.258 | 0.285 | 0.26 | 0.268 | 0.868 | 0.634 | 0.556 | 0.685 | 0.773 | 0.744 | 0.7 | 0.74 | 0.515 | 0.519 | 0.551 | 0.489 | 0.857 |
| LXF-289 | 0.218 | 0.194 | 0.169 | 0.184 | 0.197 | 0.924 | 0.876 | 0.773 | 0.787 | 0.822 | 0.737 | 0.737 | 0.808 | 0.341 | 0.339 | 0.353 | 0.407 | 0.791 |
| H3255 | 0.549 | 0.646 | 0.63 | 0.547 | 0.615 | 0.981 | 0.883 | 0.795 | 0.814 | 0.832 | 0.815 | 0.693 | 0.448 | 0.588 | 0.612 | 0.582 | 0.603 | 0.704 |
| 201T | 0.954 | 0.948 | 0.914 | 0.933 | 0.963 | 0.957 | 1.02 | 0.876 | 0.883 | 0.952 | 0.919 | 0.894 | 0.958 | 0.844 | 0.887 | 0.837 | 0.926 | 0.995 |
